Results as given in patent US6753337B2, “Alkynyl containing hydroxamic acid compounds as matrix metalloproteinase/tace inhibitors” (Wyeth Holdings Corporation, priority 1999, dated 2004).
Counter-ions that a name gives are not always drawn.

What was measured:
THP-1 cells = experiment: Human monocytic THP-1 cell differentiation assay for soluble proteins (THP-1 soluble protein assay); assay type: cell-based; conditions: LPS-stimulated THP-1 cells, soluble protein not given
MMP-9 = MMP-9 (Homo sapiens, UniProt P14780); experiment: MMP-9 inhibition (thiopeptide or fluorescent peptide substrate); assay type: biochemical; conditions: read-out: MMP9 IC50
[1] = biological target: TNF-α converting enzyme (TACE) (Homo sapiens, UniProt P78536); experiment: Test procedure for measuring TACE inhibition (fluorescent peptidyl substrate); assay type: biochemical
In short: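 TACE (1 μg/mL final) preincubated 10 min at room temperature with 1 μM compound in 10 mM Tris pH 7.4, 10% glycerol, DMSO <1%. Treated rates tested against control by Dunnett's test (p<0.05).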

Sequence of TNF-α converting enzyme (TACE) (P78536 215-824): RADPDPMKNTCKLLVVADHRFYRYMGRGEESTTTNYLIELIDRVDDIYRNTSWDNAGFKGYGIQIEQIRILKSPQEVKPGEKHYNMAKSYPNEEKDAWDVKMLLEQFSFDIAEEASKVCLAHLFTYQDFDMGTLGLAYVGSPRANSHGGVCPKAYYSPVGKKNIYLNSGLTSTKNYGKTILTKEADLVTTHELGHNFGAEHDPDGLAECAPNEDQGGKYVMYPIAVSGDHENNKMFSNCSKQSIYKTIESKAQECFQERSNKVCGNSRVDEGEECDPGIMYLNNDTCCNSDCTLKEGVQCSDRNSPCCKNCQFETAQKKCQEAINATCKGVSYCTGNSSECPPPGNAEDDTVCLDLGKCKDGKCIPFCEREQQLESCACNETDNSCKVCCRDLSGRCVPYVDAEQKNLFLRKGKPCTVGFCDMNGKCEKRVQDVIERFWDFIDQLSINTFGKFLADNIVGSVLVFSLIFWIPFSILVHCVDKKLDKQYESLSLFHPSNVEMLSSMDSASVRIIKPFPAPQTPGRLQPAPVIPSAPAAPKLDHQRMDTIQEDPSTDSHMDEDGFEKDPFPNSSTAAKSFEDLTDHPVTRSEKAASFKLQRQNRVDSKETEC
Sequence of MMP-9 (P14780 94-707): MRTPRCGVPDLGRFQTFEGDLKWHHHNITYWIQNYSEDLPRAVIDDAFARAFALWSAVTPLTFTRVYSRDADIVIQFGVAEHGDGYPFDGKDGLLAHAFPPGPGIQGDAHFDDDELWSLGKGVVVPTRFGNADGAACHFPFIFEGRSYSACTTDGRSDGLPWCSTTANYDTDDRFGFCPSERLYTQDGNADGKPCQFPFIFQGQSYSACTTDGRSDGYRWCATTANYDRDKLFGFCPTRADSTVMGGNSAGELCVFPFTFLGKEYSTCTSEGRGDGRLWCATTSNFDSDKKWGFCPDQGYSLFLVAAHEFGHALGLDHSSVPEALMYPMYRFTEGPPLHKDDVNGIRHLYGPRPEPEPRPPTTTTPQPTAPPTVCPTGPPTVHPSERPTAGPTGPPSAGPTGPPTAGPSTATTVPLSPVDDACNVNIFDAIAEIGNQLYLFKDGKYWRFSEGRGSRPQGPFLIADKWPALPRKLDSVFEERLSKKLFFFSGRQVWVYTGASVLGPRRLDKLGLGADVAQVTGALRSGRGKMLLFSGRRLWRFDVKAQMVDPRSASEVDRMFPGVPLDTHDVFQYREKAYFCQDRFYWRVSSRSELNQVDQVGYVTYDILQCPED

SMILES: CC#CCOc1ccc(S(=O)(=O)C2(C(=O)NO)CCN(C(=O)c3cccs3)CC2)cc1 [Example 71, 4-(4-but-2-ynyloxybenzenesulfonyl)-N-hydroxy-1-(2-thienylcarbonyl)-4-piperidinecarboxamide]
- inhibition at 3 µM (THP-1 cells): 14%
- IC50 (MMP-9): 811 nM
- IC50 [1]: 113 nM

SMILES: CC#CCOc1ccc(S(=O)(=O)C2(C(=O)NO)CCN(S(=O)(=O)c3ccc(OC)cc3)CC2)cc1 [Example 72, 4-(4-but-2-ynyloxybenzenesulfonyl)-N-hydroxy-1-[(4-methoxyphenyl)-sulfonyl]-4-piperidinecarboxamide]
- inhibition at 3 µM (THP-1 cells): 56%
- IC50 (MMP-9): 1210 nM
- IC50 [1]: 221 nM

SMILES: CC#CCOc1ccc(S(=O)(=O)C2(C(=O)NO)CCN(C(=O)C(C)(CO)CO)CC2)cc1 [Example 74, 4-(4-But-2-ynyloxybenzenesulfonyl)-N-hydroxy-1-[3-hydroxy-2-(hydroxymethyl)-2-methylpropanoyl]-4-piperidinecarboxamide]
- inhibition at 3 µM (THP-1 cells): 39%
- IC50 (MMP-9): 963 nM
- IC50 [1]: 132 nM

SMILES: CC#CCOc1ccc(S(=O)(=O)C2(C(=O)NO)CCN(C(=O)OC(C)(C)C)CC2)cc1 [Example 75, Tert-butyl 4-{[4-(2-butynyloxy)phenyl]sulfonyl}-4-[(hydroxyamino)carbonyl-]-1-piperidinecarboxalate]
- inhibition at 3 µM (THP-1 cells): -4%
- IC50 (MMP-9): 1950 nM
- IC50 [1]: 134 nM

SMILES: CC#CCOc1ccc(S(=O)(=O)C2(C(=O)NO)CCNCC2)cc1 [Example 76, 4-{[4-(2-butynyloxy)phenyl]sulfonyl}-N-hydroxy-4-piperidinecarboxamide hydrochloride]
- inhibition at 3 µM (THP-1 cells): 26%
- IC50 (MMP-9): 7890 nM
- IC50 [1]: 201 nM

SMILES: CC#CCOc1ccc(S(=O)(=O)C2(C(=O)NO)CCN(Cc3ccc(C(=O)OC)cc3)CC2)cc1 [Example 77, hydrochloride]
- inhibition at 3 µM (THP-1 cells): 52%
- IC50 (MMP-9): 149 nM
- IC50 [1]: 114 nM

SMILES: CC#CCOc1ccc(S(=O)(=O)C2(C(=O)NO)CCN(Cc3ccc(C(=O)O)cc3)CC2)cc1 [Example 78, 4-({4-{[4-(2-butynyloxy)phenyl]sulfonyl}-4-[(hydroxyamino)-carbonyl]-1-piperidinyl}methyl)benzoic acid hydrochloride]
- inhibition at 3 µM (THP-1 cells): 64%
- IC50 (MMP-9): 364 nM
- IC50 [1]: 64.5 nM

SMILES: CC#CCOc1ccc(S(=O)(=O)C2(C(=O)NO)CCN(Cc3ccc(C(N)=O)cc3)CC2)cc1 [Example 79, 1-[4-(Aminocarbonyl)benzyl]-4-{[4-(2-butynyloxy)phenyl]sulfonyl}-N-hydroxy-4-piperidinecarboxamide hydrochloride]
- inhibition at 3 µM (THP-1 cells): 83%
- IC50 (MMP-9): 129 nM
- IC50 [1]: 70 nM

SMILES: CC#CCOc1ccc([S+]([O-])C2(C(=O)NO)CCN(C(=O)OC(C)(C)C)CC2)cc1 (stereo not drawn) [Example 80, tert-butyl 4-{[4-(but-2-ynyloxy)phenyl]sulfinyl}-4-[(hydroxyamino)carbonyl]piperidine-1-carboxalate]
- inhibition at 3 µM (THP-1 cells): -7%
- IC50 (MMP-9): 122 nM
- IC50 [1]: 90 nM

SMILES: CC#CCOc1ccc([S+]([O-])C2(C(=O)NO)CCNCC2)cc1 (stereo not drawn) [Example 81, 4-(4-(But-2-ynyloxy-benzenesulfinyl)-piperidine-4-carboxylic acid hydroxamide hydrochloride]
- inhibition at 3 µM (THP-1 cells): 25%
- IC50 (MMP-9): 1040 nM
- IC50 [1]: 277 nM

SMILES: CC#CCOc1ccc([S+]([O-])C2(C(=O)NO)CCN(Cc3ccc(Br)cc3)CC2)cc1 (stereo not drawn) [Example 82, 1-(4-Bromo-benzyl)-4-(4-But-2-ynyloxy-benzenesulfinyl)-piperidine-4-carboxylic acid hydroxamide hydrochloride]
- inhibition at 3 µM (THP-1 cells): 16%
- IC50 (MMP-9): 125 nM
- IC50 [1]: 135 nM
